Laboratory results from US6028195A, “Piperazine derivatives and process for the preparation thereof” (Samjin Pharmaceutical Co., Ltd., priority 1996, dated 2000).
Converted amounts (≈) assume the structure as drawn. Read-outs that look alike come from different tables or passages of the source.

Key:
[1] = tested on: A549 (human non-small lung cell); experiment: SRB assay, in vitro antitumor effect against A549; format: cell-based; settings: Homo sapiens
Procedure, shortened: (§1)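 Read-out is OD at 520 nm after sulforhodamine B staining of TCA-fixed cells, following 48 h drug exposure (DMSO kept under 0.5%). Values compare treated (T), untreated (C) and time-zero (Tz) wells, giving growth inhibition above Tz and net killing below it.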

SKOV-3 (human ovarian) = experiment: SRB assay, in vitro antitumor effect against SKOV-3; format: cell-based; settings: Homo sapiens; SK-OV-3, 48 hours; read-out: ED50 (the source's name)
Procedure, shortened: as §1

SKMEL-2 (human melanoma) = experiment: SRB assay, in vitro antitumor effect against SKMEL-2; format: cell-based; settings: Homo sapiens; SK-MEL-2, 48 hours; read-out: ED50 (the source's name)
Procedure, shortened: as §1

XF 498 (human CNS) = experiment: SRB assay, in vitro antitumor effect against XF 498; format: cell-based; settings: Homo sapiens, XF498; XF-498, 48 hours; read-out: ED50 (the source's name)
Procedure, shortened: as §1

HCT-15 (human colon) = experiment: SRB assay, in vitro antitumor effect against HCT-15; format: cell-based; settings: Homo sapiens; HCT 15, 48 hours; read-out: ED50 (the source's name)
Procedure, shortened: as §1

[2] = tested on: mouse leukemia P388 cells; experiment: In vivo antitumor effects against mouse leukemia P388 cells in BDF1 mice; settings: P388, ip, abdominal cavity
Experimental: In vivo antitumor effects against mouse leukemia P388 cells.
1) Leukemia P388 cells being transfer-cultured successively in DBA/2 mouse, were grafted into each mouse of a group comprising 8 mice of 6 week old BDF1 mouse with the dose of 1×10^6 cells/0.1 ml. […]
3) With observation everyday, survival times of tested mice were measured. Antitumor activities was determined in such a manner that the increasing ratio(T/C%) of average survival days of drug-treated groups compared with the control group was calculated using the mean survival times of each tested groups.

[3] = Acute toxicity test (LD50), Litchfield-Wilcoxon method; settings: mouse, in vivo, ip, male ICR mice, 14 days
Experimental: Acute toxicity test (LD50): Litchfield-Wilcoxon method.
6 weeks old ICR mice(male 30±2.0 g) were fed freely with solid feed and water at room temperature, 23±1° C. and at humidity 60±5%. Sample drugs were injected into the abdominal cavities of mice, while each group comprises 6 mice. Observed during 14 days, external appearances and life or dead were recorded, and then, visible pathogenies were observed from dead animals by dissection. LD50 value was calculated by Litchfiled-wilcoxon method.

[4] = A549, 48 hours, read-out: ED50 (the source's name)
[5] = nine everyday, read-out: T/C(%)
[6] = on days 1, 5, 9, read-out: T/C(%)

Question: Which IC50 [1, 4] does the source give for `CCCc1nc(OC)c(NC(=O)N2CCN(c3cc(OC)cc(OC)c3)CC2)cc1C` [Example 15, 1-[(2-Methoxy-5-methyl-6-propylpyridin-3-yl)aminocarbonyl]-4-(3,5-dimethoxyphenyl)piperazine] here?
Answer: 2 ng/mL (≈ 0.00467 µM)

Question: What about the IC50 (SKOV-3 (human ovarian)) of the same compound?
Answer: 0.05 µg/mL (≈ 0.117 µM)

Question: And the IC50 (SKMEL-2 (human melanoma))?
Answer: 0.052 µg/mL (≈ 0.121 µM)

Question: What about the IC50 (XF 498 (human CNS)) of the same compound?
Answer: 0.035 µg/mL (≈ 0.0817 µM)

Question: And the IC50 (HCT-15 (human colon))?
Answer: 0.038 µg/mL (≈ 0.0887 µM)

Question: What about the response vs control in vivo at 10 mg/kg [2, 5] of the same compound?
Answer: 110%

Question: And the response vs control in vivo at 25 mg/kg [2, 5]?
Answer: 150%

Question: And the LD50 at 336 h [3]?
Answer: 190 mg/kg

Question: Which IC50 [1, 4] does the source give for `COc1nc2ccccc2cc1NC(=O)N1CCN(c2cc(C)cc(C)c2)CC1` [Example 82, 1-[(2-Methoxyquinolin-3-yl)aminocarbonyl]-4-(3,5-dimethylphenyl)piperazine] here?
Answer: 67.6 ng/mL (≈ 0.173 µM)

Question: What about the IC50 (SKOV-3 (human ovarian)) of the same compound?
Answer: 0.0249 µg/mL (≈ 0.0638 µM)

Question: What about the IC50 (SKMEL-2 (human melanoma)) of the same compound?
Answer: 0.0754 µg/mL (≈ 0.193 µM)

Question: And the IC50 (XF 498 (human CNS))?
Answer: 0.0479 µg/mL (≈ 0.123 µM)

Question: What about the IC50 (HCT-15 (human colon)) of the same compound?
Answer: 0.0346 µg/mL (≈ 0.0886 µM)

Question: What about the response vs control in vivo at 50 mg/kg [2, 6] of the same compound?
Answer: 100%

Question: What about the response vs control in vivo at 100 mg/kg [2, 6] of the same compound?
Answer: 127%

Question: And the LD50 at 336 h [3]?
Answer: 700 mg/kg

Question: For `CCCc1nc(OC)c(NC(=O)N2CCN(c3cc(C)cc(C)c3)CC2)cc1C` [Example 16, 1-[(2-Methoxy-5-methyl-6-propylpyridin-3-yl)aminocarbonyl]-4-(3,5-dimethylphenyl)piperazine], which IC50 [1, 4] is on record?
Answer: 8 ng/mL (≈ 0.0202 µM)

Question: What about the IC50 (SKOV-3 (human ovarian)) of the same compound?
Answer: 0.04 µg/mL (≈ 0.101 µM)

Question: And the IC50 (SKMEL-2 (human melanoma))?
Answer: 0.038 µg/mL (≈ 0.0958 µM)

Question: And the IC50 (XF 498 (human CNS))?
Answer: 0.005 µg/mL (≈ 0.0126 µM)

Question: What about the IC50 (HCT-15 (human colon)) of the same compound?
Answer: 0.061 µg/mL (≈ 0.154 µM)

Question: And the response vs control in vivo at 25 mg/kg [2, 5]?
Answer: 110%

Question: What about the response vs control in vivo at 50 mg/kg [2, 5] of the same compound?
Answer: 165%

Question: What about the LD50 at 336 h [3] of the same compound?
Answer: 283 mg/kg

Question: Which results are given for `C=Cc1cc(NC(=O)N2CCN(c3cc(OC)cc(OC)c3)CC2)c(OC)nc1C` [Example 73, 1-[(2-Methoxy-6-methyl-5-vinylpyridin-3-yl)aminocarbonyl]-4-(3,5-dimethoxyphenyl)piperazine]?
Answer: IC50 [1, 4]: 10 ng/mL (≈ 0.0242 µM); IC50 (SKOV-3 (human ovarian)): 0.0054 µg/mL (≈ 0.0131 µM); IC50 (SKMEL-2 (human melanoma)): 0.02 µg/mL (≈ 0.0485 µM); IC50 (XF 498 (human CNS)): 0.013 µg/mL (≈ 0.0315 µM); IC50 (HCT-15 (human colon)): 0.012 µg/mL (≈ 0.0291 µM); response vs control in vivo at 10 mg/kg [2, 5]: 140%; response vs control in vivo at 25 mg/kg [2, 5]: 150%; response vs control in vivo at 50 mg/kg [2, 5]: 180%; LD50 at 336 h [3]: 250 mg/kg

Question: Which results are given for `C=Cc1cc(NC(=O)N2CCN(c3cc(C)cc(C)c3)CC2)c(OC)nc1C` [Example 74, 1-[(2-Methoxy-6-methyl-5-vinylpyridin-3-yl)aminocarbonyl]-4-(3,5-dimethylphenyl)piperazine]?
Answer: IC50 [1, 4]: 16 ng/mL (≈ 0.0421 µM); IC50 (SKOV-3 (human ovarian)): 0.0138 µg/mL (≈ 0.0363 µM); IC50 (SKMEL-2 (human melanoma)): 0.02 µg/mL (≈ 0.0526 µM); IC50 (XF 498 (human CNS)): 0.026 µg/mL (≈ 0.0683 µM); IC50 (HCT-15 (human colon)): 0.021 µg/mL (≈ 0.0552 µM); response vs control in vivo at 10 mg/kg [2, 5]: 140%; response vs control in vivo at 25 mg/kg [2, 5]: 150%; response vs control in vivo at 50 mg/kg [2, 5]: 250%; LD50 at 336 h [3]: 361 mg/kg

Question: Which results are given for `COc1cc(OC)cc(N2CCN(C(=O)Nc3cc4ccccc4nc3OC)CC2)c1` [Example 81, 1-[(2-Methoxyquinolin-3-yl)aminocarbonyl]-4-(3,5-dimethoxyphenyl)piperazine]?
Answer: IC50 ([1]; A549, 48 h, read-out: ED50): 3.2 ng/mL (≈ 0.00757 µM); IC50 (SKOV-3 (human ovarian)): 0.0007 µg/mL (≈ 0.00166 µM); IC50 (SKMEL-2 (human melanoma)): 0.0107 µg/mL (≈ 0.0253 µM); IC50 (XF 498 (human CNS)): 0.0097 µg/mL (≈ 0.023 µM); IC50 (HCT-15 (human colon)): 0.0054 µg/mL (≈ 0.0128 µM); response vs control in vivo at 10 mg/kg [2, 5]: 140%; response vs control in vivo at 25 mg/kg [2, 5]: 140%; response vs control in vivo at 50 mg/kg [2, 5]: 210%; response vs control in vivo at 50 mg/kg [2, 6]: 127%; response vs control in vivo at 100 mg/kg [2, 6]: 146%; response vs control in vivo at 200 mg/kg ([2]; 200 mg/kg, on days 1, 5, 9, read-out: T/C(%)): 218%; LD50 at 336 h [3]: 1600 mg/kg
